Test results from PubChem BioAssay AID1963964 (Molecular Pharmacology Branch, DTP, NCI, 2024).

Tested on: 997726-040-R-J2-PDC tumor spheroids, viability
Experiment: Anticancer human tumor 997726-040-R-J2-PDC patient-derived squamous cell lung carcinoma cell line growth inhibition [PI3K]
Details: spheroids with HUVEC and MSC; for IC50: curve of first compound; for viability, T/C: stronger effect = lower value
Method in brief: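 Targeted small molecules plus PI3K inhibitors, half-log dose series from Cmax (default top 10 microM), were applied to heterotypic spheroids of cancer cells with HUVEC and MSCs. Viability indicated growth inhibition.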

[1] = second compound 0.00316 µM, first compound 0.0316 µM
[2] = second compound 0.00316 µM, first compound 0.1 µM
[3] = second compound 0.00316 µM, first compound 0.316 µM
[4] = second compound 0.00316 µM, first compound 1 µM
[5] = second compound 0.00316 µM, first compound 3.16 µM
[6] = second compound 0.00316 µM, first compound 10 µM
[7] = second compound 0.01 µM, first compound 0.0316 µM
[8] = second compound 0.01 µM, first compound 0.1 µM
[9] = second compound 0.01 µM, first compound 0.316 µM
[10] = second compound 0.01 µM, first compound 1 µM
[11] = second compound 0.01 µM, first compound 3.16 µM
[12] = second compound 0.01 µM, first compound 10 µM
[13] = second compound 0.0316 µM, first compound 0.0316 µM
[14] = second compound 0.0316 µM, first compound 0.1 µM
[15] = second compound 0.0316 µM, first compound 0.316 µM
[16] = second compound 0.0316 µM, first compound 1 µM
[17] = second compound 0.0316 µM, first compound 3.16 µM
[18] = second compound 0.0316 µM, first compound 10 µM
[19] = second compound 0.1 µM, first compound 0.0316 µM
[20] = second compound 0.1 µM, first compound 0.1 µM
[21] = second compound 0.1 µM, first compound 0.316 µM
[22] = second compound 0.1 µM, first compound 1 µM
[23] = second compound 0.1 µM, first compound 3.16 µM
[24] = second compound 0.1 µM, first compound 10 µM
[25] = second compound 0.316 µM, first compound 0.0316 µM
[26] = second compound 0.316 µM, first compound 0.1 µM
[27] = second compound 0.316 µM, first compound 0.316 µM
[28] = second compound 0.316 µM, first compound 1 µM
[29] = second compound 0.316 µM, first compound 3.16 µM
[30] = second compound 0.316 µM, first compound 10 µM
[31] = second compound 1 µM, first compound 0.0316 µM
[32] = second compound 1 µM, first compound 0.1 µM
[33] = second compound 1 µM, first compound 0.316 µM
[34] = second compound 1 µM, first compound 1 µM
[35] = second compound 1 µM, first compound 3.16 µM
[36] = second compound 1 µM, first compound 10 µM
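Also: spheroids exposed to compounds for seven days before readout.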

## CC(C)NCC(C(=O)N1CCN(c2ncnc3c2C(C)CC3O)CC1)c1ccc(Cl)cc1 (stereo unspecified) + COc1c(OCCCN2CCOCC2)ccc2c3n(c(=NC(=O)c4cnc(N)nc4)nc12)CCN3
Second compound 0.00316 µM
  IC50: 190 nM
Second compound 0.01 µM
  IC50: 79.8 nM
Second compound 0.0316 µM
  IC50: < 31.6 nM
Second compound 0.1 µM
  IC50: < 31.6 nM
Second compound 0.316 µM
  IC50: < 31.6 nM
Second compound 1 µM
  IC50: < 31.6 nM
[1]
  viability, T/C: 67.1%
[2]
  viability, T/C: 55.3%
[3]
  viability, T/C: 46%
[4]
  viability, T/C: 29.1%
[5]
  viability, T/C: 15.7%
[6]
  viability, T/C: 9.1%
[7]
  viability, T/C: 51.6%
[8]
  viability, T/C: 49.6%
[9]
  viability, T/C: 42.8%
[10]
  viability, T/C: 27%
[11]
  viability, T/C: 16.8%
[12]
  viability, T/C: 9.46%
[13]
  viability, T/C: 36.4%
[14]
  viability, T/C: 33.1%
[15]
  viability, T/C: 27%
[16]
  viability, T/C: 22.3%
[17]
  viability, T/C: 13.3%
[18]
  viability, T/C: 7.3%
[19]
  viability, T/C: 19.4%
[20]
  viability, T/C: 17.6%
[21]
  viability, T/C: 18.9%
[22]
  viability, T/C: 14.4%
[23]
  viability, T/C: 8.93%
[24]
  viability, T/C: 5.81%
[25]
  viability, T/C: 6.3%
[26]
  viability, T/C: 5.44%
[27]
  viability, T/C: 4.27%
[28]
  viability, T/C: 3.76%
[29]
  viability, T/C: 3.51%
[30]
  viability, T/C: 2.65%
[31]
  viability, T/C: 1.14%
[32]
  viability, T/C: 1.32%
[33]
  viability, T/C: 1.04%
[34]
  viability, T/C: 1.33%
[35]
  viability, T/C: 2.38%
[36]
  viability, T/C: 1.22%

## CCN1CCN(Cc2ccc(Nc3ncc(F)c(-c4cc(F)c5nc(C)n(C(C)C)c5c4)n3)nc2)CC1 + COc1c(OCCCN2CCOCC2)ccc2c3n(c(=NC(=O)c4cnc(N)nc4)nc12)CCN3
Second compound 0.00316 µM
  IC50: > 1000 nM
Second compound 0.01 µM
  IC50: 10.4 nM
Second compound 0.0316 µM
  IC50: < 3.16 nM
Second compound 0.1 µM
  IC50: < 3.16 nM
Second compound 0.316 µM
  IC50: < 3.16 nM
Second compound 1 µM
  IC50: < 3.16 nM
Second compound 0.00316 µM, first compound 0.00316 µM
  viability, T/C: 70%
Second compound 0.00316 µM, first compound 0.01 µM
  viability, T/C: 68.4%
[1]
  viability, T/C: 62.2%
[2]
  viability, T/C: 54.2%
[3]
  viability, T/C: 55.1%
[4]
  viability, T/C: 65.3%
Second compound 0.01 µM, first compound 0.00316 µM
  viability, T/C: 61%
Second compound 0.01 µM, first compound 0.01 µM
  viability, T/C: 50.4%
[7]
  viability, T/C: 49.1%
[8]
  viability, T/C: 41.3%
[9]
  viability, T/C: 41.5%
[10]
  viability, T/C: 60.8%
Second compound 0.0316 µM, first compound 0.00316 µM
  viability, T/C: 31.4%
Second compound 0.0316 µM, first compound 0.01 µM
  viability, T/C: 34.8%
[13]
  viability, T/C: 29.5%
[14]
  viability, T/C: 28.1%
[15]
  viability, T/C: 31%
[16]
  viability, T/C: 33.7%
Second compound 0.1 µM, first compound 0.00316 µM
  viability, T/C: 22%
Second compound 0.1 µM, first compound 0.01 µM
  viability, T/C: 20.4%
[19]
  viability, T/C: 17.7%
[20]
  viability, T/C: 16.6%
[21]
  viability, T/C: 16.9%
[22]
  viability, T/C: 19.3%
Second compound 0.316 µM, first compound 0.00316 µM
  viability, T/C: 5.44%
Second compound 0.316 µM, first compound 0.01 µM
  viability, T/C: 4.49%
[25]
  viability, T/C: 4.5%
[26]
  viability, T/C: 6.65%
[27]
  viability, T/C: 6.95%
[28]
  viability, T/C: 7.72%
Second compound 1 µM, first compound 0.00316 µM
  viability, T/C: 1.02%
Second compound 1 µM, first compound 0.01 µM
  viability, T/C: 1.63%
[31]
  viability, T/C: 1.24%
[32]
  viability, T/C: 1.32%
[33]
  viability, T/C: 2.23%
[34]
  viability, T/C: 3.91%

## Cn1ncc(Cl)c1-c1cc(C(=O)NC(CN)Cc2cccc(F)c2)sc1Cl (stereo unspecified) + COc1c(OCCCN2CCOCC2)ccc2c3n(c(=NC(=O)c4cnc(N)nc4)nc12)CCN3
Second compound 0.00316 µM
  IC50: 53.2 nM
Second compound 0.01 µM
  IC50: < 31.6 nM
Second compound 0.0316 µM
  IC50: < 31.6 nM
Second compound 0.1 µM
  IC50: < 31.6 nM
Second compound 0.316 µM
  IC50: < 31.6 nM
Second compound 1 µM
  IC50: < 31.6 nM
[1]
  viability, T/C: 55.2%
[2]
  viability, T/C: 43.9%
[3]
  viability, T/C: 25.2%
[4]
  viability, T/C: 15.7%
[5]
  viability, T/C: 9.84%
[6]
  viability, T/C: 10.3%
[7]
  viability, T/C: 46.3%
[8]
  viability, T/C: 39%
[9]
  viability, T/C: 21.6%
[10]
  viability, T/C: 12.4%
[11]
  viability, T/C: 7.68%
[12]
  viability, T/C: 10.1%
[13]
  viability, T/C: 30.6%
[14]
  viability, T/C: 28%
[15]
  viability, T/C: 20%
[16]
  viability, T/C: 10.6%
[17]
  viability, T/C: 8.98%
[18]
  viability, T/C: 7.48%
[19]
  viability, T/C: 21.4%
[20]
  viability, T/C: 19.4%
[21]
  viability, T/C: 12.5%
[22]
  viability, T/C: 8.76%
[23]
  viability, T/C: 8.67%
[24]
  viability, T/C: 5.52%
[25]
  viability, T/C: 4.97%
[26]
  viability, T/C: 5.24%
[27]
  viability, T/C: 3.32%
[28]
  viability, T/C: 4.64%
[29]
  viability, T/C: 4.59%
[30]
  viability, T/C: 3.13%
[31]
  viability, T/C: 1.15%
[32]
  viability, T/C: 1.24%
[33]
  viability, T/C: 1.45%
[34]
  viability, T/C: 1.8%
[35]
  viability, T/C: 2.57%
[36]
  viability, T/C: 0.94%
